Source: patent US20210161868A1, “ANTI-INFLAMMATORY THERAPY IN ARRHYTHMOGENIC CARDIOMYOPATHY (ACM)” (Beth Israel Deaconess Medical Center, Inc., priority 2018, published 2021)
Entries after “also recorded” stand apart in the source; their conditions may differ.

Legend:
Format in all cases: cell-based
[1] = system: neonatal rat ventricular myocytes (NRVMs) expressing JUP^2157del2; experiment: In vitro cytokine assay of NRVM culture media; conditions: Bay11-7082 5 μM, 24 hours
Experimental: (§1) Primary cultures were prepared from disaggregated ventricles of 1-day-old Wistar rat pups (Charles River) as previously described.^15 Cell suspensions were pre-plated to reduce fibroblast content, placed in collagen-coated chamber slides at a density of 2.4×10^5 cells/cm^2, and grown for 4 days at 37° C. in M199 medium (GIBCO) (supplemented with penicillin, 20 U/mL; streptomycin, 20 μg/mL; 10% neonatal calf serum and 0.1 mM bromodeoxyuridine) in a humidified atmosphere containing 1% CO2. Epinephrine (0.01 μmol/mL) was added during the first 24 hours of culture. At 24 hours post-seeding, cultures were transfected with an adenoviral construct expressing plakoglobin (JUP) with the 2157del2 mutation, as previously reported.^15 At 24 hours post-transfection, cultures were treated with Bay11-7082 (Sigma, 5 mM) for an additional 24 hours. […]
Culture media from cells expressing 2157del2 plakoglobin in the presence or absence of Bay11-7082 (5 μM, 24 hours) were collected after 96 hours in culture, mixed with a cocktail of biotinylated detection antibodies, and incubated with nitrocellulose membranes spotted in duplicate with control and capture antibodies (R&D Systems). […] The cytokine array specifically detected rat cytokines whereas cells were grown in media containing neonatal bovine serum. […]

[2] = system: neonatal rat ventricular myocytes (NRVMs) expressing JUP^2157del2; experiment: ACM features (protein distribution, immunofluorescence) in NRVMs expressing mutant plakoglobin; parameters: pattern of distribution of plakoglobin, Cx43 and GSK3β: dose or concentration left out as unconfirmed
From the text: All animal studies were in full compliance with policies of Beth Israel Deaconess Medical Center, Johns Hopkins School of Medicine and St. George's University of London. They also conformed to the Guide for the Care and Use of Laboratory Animals from the National Institutes of Health (NIH publication no. 85-23, revised 1996). In vitro studies involved transfection of cultured neonatal rat ventricular myocytes with a mutant allele of the desmosomal protein plakoglobin (2157de12) as previously described.^15 In vivo studies were performed in mice with homozygous knock-in of a mutant form of Dsg2, the gene encoding the desmosomal cadherin desmoglein-2 (Dsg2^mut/mut mice) as previously described.^6 This mutation entails loss of exons 4 and 5 which causes a frameshift and premature termination of translation.
as §1, with “culture.” for “culture. At 24 hours post-seeding, cultures were transfected with an adenoviral construct expressing plakoglobin (JUP) with the 2157del2 mutation, as previously reported.^15 At 24 hours post-transfection, cultures were treated with Bay11-7082 (Sigma, 5 mM) for an additional 24 hours.”

[3] = system: neonatal rat ventricular myocytes (NRVMs) expressing JUP^2157del2; experiment: In vitro apoptosis assay (TUNEL) in NRVMs expressing mutant plakoglobin; conditions: transfected NRVMs, 24 hours
Experimental: Primary cultures were prepared from disaggregated ventricles of 1-day-old Wistar rat pups (Charles River) as previously described.^15 Cell suspensions were pre-plated to reduce fibroblast content, placed in collagen-coated chamber slides at a density of 2.4×10^5 cells/cm^2, and grown for 4 days at 37° C. in M199 medium (GIBCO) (supplemented with penicillin, 20 U/mL; streptomycin, 20 μg/mL; 10% neonatal calf serum and 0.1 mM bromodeoxyuridine) in a humidified atmosphere containing 1% CO2. Epinephrine (0.01 μmol/mL) was added during the first 24 hours of culture. At 24 hours post-seeding, cultures were transfected with an adenoviral construct expressing plakoglobin (JUP) with the 2157del2 mutation, as previously reported.^15 At 24 hours post-transfection, cultures were treated with Bay11-7082 (Sigma, […]) for an additional 24 hours. Transfected cultures treated with vehicle only (DMSO) and non-transfected cultures were used for control purposes.
Terminal deoxynucleotidyl transferase dUTP nick end labeling (TUNEL) was performed on neonatal rat myocyte cultures according to the manufacturer's protocol (Millipore, S7110). The number of TUNEL-positive nuclei was counted in 5 randomly selected high-power fields in each culture well and expressed as a per cent of total nuclei visualized with DAPI.

## Cc1ccc(S(=O)(=O)/C=C/C#N)cc1 [Bay 11-7082]
[1]
  accumulation of cytokines and chemoattractants in culture media: reduces; also recorded: greatly reduced
[2]; NRVMs expressing mutant plakoglobin
  in vitro readouts of the ACM phenotype (plakoglobin, Cx43, apoptosis, cytokines): blocked; also recorded: completely reversed
[2]; transfected NRVMs, Bay11-7082, 24 hours
  pattern of distribution of plakoglobin, Cx43 and GSK3β: normalized; also recorded: indistinguishable from that seen in control
[3]
  myocyte apoptosis, TUNEL labeling: normalization; also recorded: returned to control levels
